How the values were obtained:
hsst1 = target: T1, hsst1 (Homo sapiens, UniProt P30872); assay: Somatostatin receptor radioligand binding assay, hsst1; conditions: CHO-K1 membranes, [125I-Tyr11]SS-14; read-out: hsst1 Ki
T1 construct: expressed in transfected cells
Method: (§1) Specificity and selectivity of the somatostatin analogues used to synthesize the somatostatin-dopamine chimers were determined by a radioligand binding assay on CHO-K1 cells stably transfected with each of the SSTR subtypes, as follows. Somatostatin analogs are also described in U.S. Patent Application Publication No. 02210006790. The complete coding sequences of genomic fragments of the SSTR 1 (e.g., Genbank accession No. M81829), SSTR 2 (e.g., Genbank accession No. M81830), SSTR 3 (e.g., Genbank accession No. L07062), and SSTR 4 (e.g., Genbank accession No. AL049651) genes and a cDNA clone for SSTR 5 (e.g., Genbank accession No. D16827) was subcloned into the mammalian expression vector pCMV (Life Technologies, Milano, Italy). Other SSTR sequences are known to the skilled artisan. Clonal cell lines stably expressing SSTR's 1-5 were obtained by transfection into CHO-K1 cells (ATCC, Manassas, Va., USA) using the calcium phosphate co-precipitation method (Davis L, et al., 1994 In: Basic methods in Molecular Biology, 2nd edition, Appleton & Lange, Norwalk, Conn., USA: 611-646). The plasmid pRSV-neo (ATCC) was included as a selectable marker. Clonal cell lines were selected in RPMI 1640 media containing 0.5 mg/mL of G418 (Life Technologies, Milano, Italy), ring cloned, and expanded into culture.
(§2) Membranes for in vitro receptor binding assays were obtained by homogenizing the CHO-K1 cells expressing the SSTR's subtypes in ice-cold 50 mM Tris-HCl and centrifuging twice at 39,000 g (10 min), with an intermediate resuspension in fresh buffer. The final pellets were resuspended in 10 mM Tris-HCl for assay.
(§3) For the SSTR 1, 3, 4, and 5 assays, aliquots of the membrane preparations were incubated 90 minutes at 25° C. with 0.05 nM [^125I-Tyr11]SS-14 in 50 mM HEPES (pH 7.4) containing 10 mg/mL BSA, 5 mM MgCl2, 200 KIU/mL Trasylol, 0.02 mg/mL bacitracin, and 0.02 mg/mL phenylmethylsuphonyl fluoride. The final assay volume was 0.3 mL.
(§4) For the SSTR 2 assay, 0.05 nM [^125I]MK-678 was employed as the radioligand and the incubation time was 90 minutes at 25° C. The incubations were terminated by rapid filtration through GF/C glass microfiber filters (Whatman Co.) (pre-soaked in 0.3% polyethylenimine) using a BRANDEL filtration manifold. Each tube and filter was washed three times with 5 mL aliquots of ice-cold buffer. Specific binding was defined as the total radioligand bound minus that bound in the presence of 1000 nM SS-14 for SSTR 1, 3, 4, and 5, or 1000 nM MK-678 for SSTR2.
(§5) Using the discussed assays, the inhibition constants (Ki) for the five human somatostatin receptors (hSSTR1-hSSTR5) and the dopamine-2 receptor (hUTII and hDA2) were measured for the exemplified somatostatin-dopamine conjugates, as follows: […]

hsst2 = target: T2, hsst2 (Homo sapiens, UniProt P30874); assay: Somatostatin receptor radioligand binding assay, hsst2; conditions: CHO-K1 membranes, [125I]MK-678; read-out: hsst2 Ki
T2 construct: expressed in transfected cells
T2 sequence (P30874 whole entry): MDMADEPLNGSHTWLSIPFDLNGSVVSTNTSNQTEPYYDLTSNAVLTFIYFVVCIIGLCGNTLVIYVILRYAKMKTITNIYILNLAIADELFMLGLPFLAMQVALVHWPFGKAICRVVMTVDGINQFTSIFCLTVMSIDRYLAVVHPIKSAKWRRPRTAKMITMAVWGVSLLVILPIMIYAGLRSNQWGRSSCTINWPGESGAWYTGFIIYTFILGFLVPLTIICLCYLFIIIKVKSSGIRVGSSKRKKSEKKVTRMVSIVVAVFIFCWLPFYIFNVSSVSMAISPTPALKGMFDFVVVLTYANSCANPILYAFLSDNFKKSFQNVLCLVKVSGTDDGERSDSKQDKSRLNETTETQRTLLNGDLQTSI
Method: as §1, §2, §4

hsst3 = target: T3, hsst3 (Homo sapiens, UniProt P32745); assay: Somatostatin receptor radioligand binding assay, hsst3; conditions: CHO-K1 membranes, [125I-Tyr11]SS-14; read-out: hsst3 Ki
T3 construct: expressed in transfected cells
T3 sequence (P32745 whole entry): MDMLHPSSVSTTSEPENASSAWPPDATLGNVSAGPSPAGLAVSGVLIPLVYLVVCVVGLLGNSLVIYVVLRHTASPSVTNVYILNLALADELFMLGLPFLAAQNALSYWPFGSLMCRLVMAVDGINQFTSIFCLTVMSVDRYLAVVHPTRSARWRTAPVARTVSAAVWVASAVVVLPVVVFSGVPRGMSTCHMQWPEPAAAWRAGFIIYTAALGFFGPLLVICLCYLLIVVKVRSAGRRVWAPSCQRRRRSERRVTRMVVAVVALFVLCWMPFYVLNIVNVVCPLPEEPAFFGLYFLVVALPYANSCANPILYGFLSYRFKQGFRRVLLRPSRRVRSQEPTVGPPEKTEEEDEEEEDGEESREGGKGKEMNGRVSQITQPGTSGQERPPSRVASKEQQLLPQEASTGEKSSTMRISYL
Method: as §1, §2, §3, §4, §5

hsst5 = target: T4, hsst5 (Homo sapiens, UniProt P35346); assay: Somatostatin receptor radioligand binding assay, hsst5; conditions: CHO-K1 membranes, [125I-Tyr11]SS-14; read-out: hsst5 Ki
T4 construct: expressed in transfected cells
T4 sequence (P35346 whole entry): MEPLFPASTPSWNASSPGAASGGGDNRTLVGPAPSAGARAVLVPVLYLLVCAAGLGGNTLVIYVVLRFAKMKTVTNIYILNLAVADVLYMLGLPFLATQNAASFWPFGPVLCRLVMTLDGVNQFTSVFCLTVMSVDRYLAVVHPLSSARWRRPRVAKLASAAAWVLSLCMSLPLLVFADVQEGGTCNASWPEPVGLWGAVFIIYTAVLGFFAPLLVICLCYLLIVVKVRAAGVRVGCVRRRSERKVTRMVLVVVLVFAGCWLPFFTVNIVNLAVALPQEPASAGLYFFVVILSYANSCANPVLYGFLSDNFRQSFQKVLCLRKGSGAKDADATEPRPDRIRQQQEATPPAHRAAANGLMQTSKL
Method: as §1, §2, §3, §4

hUTII = target: T5, hUTII (Homo sapiens, UniProt Q9UKP6); assay: hUTII inhibition constant; format: binding; conditions: read-out: hUTII Ki
T5 sequence (Q9UKP6 1-389): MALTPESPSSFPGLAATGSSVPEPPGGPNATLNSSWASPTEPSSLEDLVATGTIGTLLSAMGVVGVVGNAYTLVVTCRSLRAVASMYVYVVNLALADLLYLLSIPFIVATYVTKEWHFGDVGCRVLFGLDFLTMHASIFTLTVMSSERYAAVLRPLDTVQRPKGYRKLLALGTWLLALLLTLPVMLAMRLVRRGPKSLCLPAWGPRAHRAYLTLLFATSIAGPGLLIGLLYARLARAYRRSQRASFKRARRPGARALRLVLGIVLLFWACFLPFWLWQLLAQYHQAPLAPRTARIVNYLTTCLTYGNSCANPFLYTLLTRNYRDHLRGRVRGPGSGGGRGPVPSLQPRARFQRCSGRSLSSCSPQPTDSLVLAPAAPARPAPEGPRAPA
Method: as §5

hDA2 = assay: Dopamine-2 receptor radioligand binding assay; parameters: species or system human; conditions: [3H]spiperone
Method: Specificity and selectivity for the dopamine-2 receptor of the dopamine analogues used to synthesize the somatostatin-dopamine chimers may be determined by a radioligand binding assay as follows.
Crude membranes were prepared by homogenization of frozen rat corpus striatum (Zivic Laboratories, Pittsburgh, Pa., USA) in 20 mL of ice-cold 50 mM Tris-HCl with a Brinkman Polytron cell disrupter (setting 6, 15 sec). Buffer was added to obtain a final volume of 40 mL, and the homogenate was centrifuged in a Sorval SS-34 rotor at 39,000 g for 10 minutes at 0-4° C. The resulting supernatant was decanted and discarded. The pellet was rehomogenized in ice-cold buffer, pre-incubated at 37° C. for 10 min, diluted, and centrifuged as before. The final pellet was resuspended in buffer and held on ice for the receptor binding assay.
For assay, aliquots of the washed membrane preparations and test compounds were incubated for 15 minutes (37° C.) with 0.25 nM [^3HI]spiperone (16.5 Ci.mmol, New England Nuclear, Boston, Mass., USA) in 50 mM Tris HCl, 120 mM NaCl, 5 mM KCl, 2 mM CaCl2, 1 mM MgCl2. The final assay volume was 1.0 mL. The incubations were terminated by rapid filtration through GF/B glass fibre filters using a Brandel filtration manifold. Each tube and filter was then washed three times with 5-mL aliquots of ice-cold buffer. Specific binding was defined as the total radioligand bound minus that bound in the presence of 1000 nM (+) butaclamol.
as §5

T1 sequence (P30872 whole entry): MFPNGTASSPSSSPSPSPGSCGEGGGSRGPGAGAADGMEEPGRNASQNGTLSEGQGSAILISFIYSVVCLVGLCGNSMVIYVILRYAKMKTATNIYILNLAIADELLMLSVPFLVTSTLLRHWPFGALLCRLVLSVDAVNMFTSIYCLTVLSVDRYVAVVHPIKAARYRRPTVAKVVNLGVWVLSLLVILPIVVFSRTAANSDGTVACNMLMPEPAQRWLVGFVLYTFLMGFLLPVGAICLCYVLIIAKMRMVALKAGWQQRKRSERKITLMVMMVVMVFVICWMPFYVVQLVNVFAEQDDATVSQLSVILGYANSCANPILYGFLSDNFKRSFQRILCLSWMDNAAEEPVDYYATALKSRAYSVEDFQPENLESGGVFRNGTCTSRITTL

Row | Structure (SMILES) | Ki (hsst1) [nM] | Ki (hsst2) [nM] | Ki (hsst3) [nM] | Ki (hsst5) [nM] | Ki (hUTII) [nM] | Ki (hDA2) [nM]
1 | CCCN1C[C@H](CSCC(=O)NCCOCCOCC(=O)N[C@H](Cc2ccccc2)C(=O)N[C@H]2CSSC[C@@H](C(=O)N[C@H](C(N)=O)[C@@H](C)O)NC(=O)[C@H](CC)NC(=O)[C@H](CCCCN)NC(=O)[C@@H](Cc3c[nH]c4ccccc34)NC(=O)[C@H](Cc3ccc(O)cc3)NC2=O)C[C@@H]2c3cccc4[nH]cc(c34)C[C@H]21 [Example 8] | 1550 | 0.11 | 126 | 24.5 | 167 | 86
2 | CCCN1C[C@H](CSCC(=O)N[C@H](Cc2ccccc2)C(=O)N[C@H]2CSSC[C@@H](C(=O)N[C@H](C(N)=O)[C@@H](C)O)NC(=O)[C@H]([C@@H](C)O)NC(=O)[C@H](CCCCN)NC(=O)[C@@H](Cc3c[nH]c4ccccc34)NC(=O)[C@H](Cc3ccc(O)c(I)c3)NC2=O)C[C@@H]2c3cccc4[nH]cc(c34)C[C@H]21 [Example 12] | 602 | – | 51.5 | 4.1 | 676 | 25.2
3 | CCCN1C[C@H](CSCC(=O)NCCCC[C@@H](NC(C)=O)C(=O)N[C@H](Cc2ccccc2)C(=O)N[C@H]2CSSC[C@@H](C(=O)N[C@H](C(N)=O)[C@@H](C)O)NC(=O)[C@H]([C@@H](C)O)NC(=O)[C@H](CCCCN)NC(=O)[C@@H](Cc3c[nH]c4ccccc34)NC(=O)[C@H](Cc3ccc(O)c(I)c3)NC2=O)C[C@@H]2c3cccc4[nH]cc(c34)C[C@H]21 [Example 14] | 1340 | – | 70.3 | 2.68 | 1510 | 44.3
4 | C=CCN1C[C@H](C(=O)N(CCCN(C)CC(=O)N[C@H](Cc2ccccc2)C(=O)N[C@H]2CSSC[C@@H](C(=O)N[C@H](C(N)=O)[C@@H](C)O)NC(=O)[C@H](CC)NC(=O)[C@H](CCCCN)NC(=O)[C@@H](Cc3c[nH]c4ccccc34)NC(=O)[C@H](Cc3ccc(O)cc3)NC2=O)C(=O)NCC)C[C@@H]2c3cccc4[nH]cc(c34)C[C@H]21 [Example 6] | 509 | 0.51 | 798 | 56.5 | 677 | 65

More lines, now with the values ahead:

Row | Ki (hsst1) [nM] | Ki (hsst2) [nM] | Ki (hsst3) [nM] | Ki (hsst5) [nM] | Ki (hUTII) [nM] | Ki (hDA2) [nM] | Structure (SMILES)
5 | 1000 | 0.37 | 154 | 24.2 | 1510 | 143 | CCCN1C[C@H](CSCC(=O)NCCN2CCN(CC(=O)N[C@H](Cc3ccccc3)C(=O)N[C@H]3CSSC[C@@H](C(=O)N[C@H](C(N)=O)[C@@H](C)O)NC(=O)[C@H](CC)NC(=O)[C@H](CCCCN)NC(=O)[C@@H](Cc4c[nH]c5ccccc45)NC(=O)[C@H](Cc4ccc(O)cc4)NC3=O)CC2)C[C@@H]2c3cccc4[nH]cc(c34)C[C@H]21 [Example 24]
6 | 1000 | 0.32 | 70.3 | 17 | 223 | 255 | CC[C@@H]1NC(=O)[C@H](CCCCN)NC(=O)[C@@H](Cc2c[nH]c3ccccc23)NC(=O)[C@H](Cc2ccc(O)cc2)NC(=O)[C@@H](NC(=O)[C@@H](Cc2ccccc2)NC(=O)COCCOCCNC(=O)CSC[C@@H]2C[C@@H]3c4cccc5[nH]cc(c45)C[C@H]3N(C)C2)CSSC[C@@H](C(=O)N[C@H](C(N)=O)[C@@H](C)O)NC1=O [Example 40]
7 | 691 | 0.1 | 84.6 | 22.6 | 498 | 25.5 | CCCN1C[C@H](CSCC(=O)N[C@H](Cc2ccccc2)C(=O)N[C@H]2CSSC[C@@H](C(=O)N[C@H](C(N)=O)[C@@H](C)O)NC(=O)[C@H](CC)NC(=O)[C@H](CCCCN)NC(=O)[C@@H](Cc3c[nH]c4ccccc34)NC(=O)[C@H](Cc3ccc(O)cc3)NC2=O)C[C@@H]2c3cccc4[nH]cc(c34)C[C@H]21 [Example 31]

Source: patent publication US20110065632A1, “PHARMACEUTICAL COMPOSITIONS OF SOMATOSTATIN-DOPAMINE CONJUGATES” (priority 2008, published 2011)
